Results: patent publication US6545182B2, “Methods and compositions for modulating alpha adrenergic receptor activity” (Allergan Sales, Inc., priority 2000, dated 2003)

Tests used:
[1] = target: T1, alpha 2A adrenergic receptor (Homo sapiens, UniProt P08913); assay: RSAT (Receptor Selection and Amplification Technology) assay, alpha 2A; assay type: cell-based; conditions: NIH-3T3 cells cotransfected with receptor and Gq/i5
T1 construct: expressed in transfected cells; host or cells: NIH-3T3 cells, transient cotransfection by calcium phosphate
T1 sequence (P08913 1-465): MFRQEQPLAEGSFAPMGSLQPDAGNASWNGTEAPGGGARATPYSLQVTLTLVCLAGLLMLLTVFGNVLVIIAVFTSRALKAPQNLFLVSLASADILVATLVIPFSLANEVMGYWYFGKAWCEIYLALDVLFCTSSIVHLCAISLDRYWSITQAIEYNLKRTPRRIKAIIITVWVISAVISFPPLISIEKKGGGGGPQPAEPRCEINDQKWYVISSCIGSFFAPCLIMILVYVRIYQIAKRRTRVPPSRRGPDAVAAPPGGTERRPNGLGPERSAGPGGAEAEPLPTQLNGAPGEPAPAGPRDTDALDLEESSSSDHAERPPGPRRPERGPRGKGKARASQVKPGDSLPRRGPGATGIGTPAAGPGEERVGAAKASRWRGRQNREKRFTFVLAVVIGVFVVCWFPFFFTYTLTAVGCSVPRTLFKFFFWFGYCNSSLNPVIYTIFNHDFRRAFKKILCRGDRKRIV
Procedure: (§1) Activity was measured using the RSAT (Receptor Selection and Amplification Technology) assay, developed by Receptor Technologies, Inc. of Winooski, Vt. (now Acadia Pharmaceuticals of San Diego, Calif.), adapted for use with recombinant alpha2 adrenergic receptors in collaboration with Allergan. The assay measures receptor-mediated loss of contact inhibition that results in selective proliferation of receptor-containing cells in a mixed population of confluent cells. The increase in cell number is assessed with an appropriate transfected marker gene such as β-galactosidase, the activity of which can be easily measured in a 96-well format. Receptors that activate the G protein, Gq, elicit this response. Alpha2 receptors, which normally couple to Gi, activate the RSAT response when coexpressed with a hybrid Gq protein that has a Gi receptor recognition domain, called Gq/i5.
(§2) The assay is conducted as follows. NIH-3T3 cells are plated at a density of 2×10^6 cells in 15 cm dishes and maintained in Dulbecco's modified Eagle's medium supplemented with 10% calf serum. One day later, cells are cotransfected by calcium phosphate precipitation with mammalian expression plasmids encoding p-SV-β-galactosidase (5-10 μg), receptor (1-2 μg) and G protein (1-2 μg). 40 μg salmon sperm DNA may also be included in the transfection mixture to increase transfection efficiency. Fresh media is added on the following day and 1-2 days later, cells are harvested and frozen in 50 assay aliquots. Transfectant cells are thawed and 100 μl added to 100 μl aliquots of various concentrations of drugs in triplicate in 96-well dishes. Incubations continue 72-96 hr at 37°. After washing with phosphate-buffered saline, β-galactosidase enzyme activity is determined by adding 200 μl of the chromogenic substrate (consisting of 3.5 mM o-nitrophenyl-β-D-galactopyranoside and 0.5% of the non-ionic surfactant nonidet P-40 in phosphate buffered saline), incubating overnight at 30° and measuring optical density at 420 nm. The absorbency is a measure of enzyme activity, which depends on cell number and reflects a receptor-mediated cell proliferation. The EC50 and maximal effect of each drug at each alpha2 receptor is determined. The efficacy or intrinsic activity is calculated as a ratio of the maximal effect of the drug to the maximal effect of a standard full agonist for each receptor subtype. Brimonidine, also called UK14304, is used as the standard agonist for the alpha2A, alpha2B and alpha2C receptors. The RSAT assay is also discussed in Messier et al. (1995) High throughput assays of cloned adrenergic, muscarinic, neurokinin and neurotrophin receptors in living mammalian cells, Pharmacol. Toxicol. 76:308-11; see also Conklin et al. (1993) Substitution of three amino acids switches receptor specificity of Gqα to that of Giα, Nature 363:274-6; Both of these papers are incorporated by reference herein.

[2] = target: T2, alpha 2B adrenergic receptor (Homo sapiens, UniProt P18089); assay: RSAT (Receptor Selection and Amplification Technology) assay, alpha 2B; assay type: cell-based; conditions: for EC50: NIH-3T3 cells cotransfected with receptor and Gq/i5; for efficacy or intrinsic activity (value in parentheses) Alpha 2B: ratio of maximal effect to that of standard full agonist brimonidine
T2 construct: expressed in transfected cells; host or cells: NIH-3T3 cells, transient cotransfection by calcium phosphate
T2 sequence (P18089 1-450): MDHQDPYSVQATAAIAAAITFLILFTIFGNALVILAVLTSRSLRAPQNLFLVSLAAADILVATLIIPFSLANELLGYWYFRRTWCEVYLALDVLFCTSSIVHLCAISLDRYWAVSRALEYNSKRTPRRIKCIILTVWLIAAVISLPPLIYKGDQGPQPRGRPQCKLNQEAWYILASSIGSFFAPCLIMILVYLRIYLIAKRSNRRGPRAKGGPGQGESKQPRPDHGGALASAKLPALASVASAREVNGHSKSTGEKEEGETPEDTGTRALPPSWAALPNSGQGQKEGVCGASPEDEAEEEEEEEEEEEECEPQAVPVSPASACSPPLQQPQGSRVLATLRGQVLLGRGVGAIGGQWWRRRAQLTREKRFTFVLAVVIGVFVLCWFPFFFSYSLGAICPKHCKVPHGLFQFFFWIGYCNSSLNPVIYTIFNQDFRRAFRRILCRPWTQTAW
Procedure: as §1, §2

[3] = target: T3, alpha 2C adrenergic receptor (Homo sapiens, UniProt P18825); assay: RSAT (Receptor Selection and Amplification Technology) assay, alpha 2C; assay type: cell-based; conditions: for EC50: NIH-3T3 cells cotransfected with receptor and Gq/i5; for efficacy or intrinsic activity (value in parentheses) Alpha 2C: ratio of maximal effect to that of standard full agonist brimonidine
T3 construct: expressed in transfected cells; host or cells: NIH-3T3 cells, transient cotransfection by calcium phosphate
T3 sequence (P18825 1-462): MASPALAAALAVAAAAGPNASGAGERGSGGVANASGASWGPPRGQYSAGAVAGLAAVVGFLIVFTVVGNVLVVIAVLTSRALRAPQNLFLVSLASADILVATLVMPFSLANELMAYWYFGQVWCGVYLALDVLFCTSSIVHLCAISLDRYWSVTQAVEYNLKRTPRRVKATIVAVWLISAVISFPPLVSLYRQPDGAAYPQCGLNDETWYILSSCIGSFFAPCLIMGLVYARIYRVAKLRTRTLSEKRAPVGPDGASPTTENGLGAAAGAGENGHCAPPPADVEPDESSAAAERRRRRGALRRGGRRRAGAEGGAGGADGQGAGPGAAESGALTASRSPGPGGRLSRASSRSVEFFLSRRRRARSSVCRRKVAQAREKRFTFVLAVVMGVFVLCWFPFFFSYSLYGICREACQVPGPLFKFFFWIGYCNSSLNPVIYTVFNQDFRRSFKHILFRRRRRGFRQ
Procedure: as §1, §2

Sprague-Dawley rats = assay: rat locomotor model to assess sedation; assay type: in vivo; conditions: 3 mg/kg i.p., 30 minutes after injection, vs vehicle controls
Procedure: (§3) The physiological activity of these compounds was tested using four models: a rat locomotor model to assess sedation, an assay of cardiovascular activity in monkeys, a rat thermal paw withdrawal assay (Dirig et al., J. Neurosci. Methods 76:183-191 (1997) to test the alleviation of acute pain, and the rat spinal nerve ligation allodynia model (Kim and Chung, Pain 50:355-363 (1992) to assess the alleviation of neuropathic pain and central sensitization typical of chronic pain. As is known to those of skill in the art, these tests are established pharmacological methods for determining sedation, cardiovascular effects, acute pain and chronic pain, respectively, of pharmaceutical agents.
To test sedation, six male Sprague-Dawley rats were given up to 3 mg/kg of each compound in a saline or DMSO vehicle by intraperitoneal injection (i.p.). Sedation was graded 30 minutes following administration of the drug by monitoring locomotor skills as follows.
The Sprague-Dawley rats are weighed and 1 ml/kg body weight of an appropriate concentration (i.e. 3 mg/ml for a final dose of 3 mg/kg) drug solution is injected intraperitoneally. FORMULA 3 is formulated in approximately 10% DMSO and FORMULA 2 and FORMULA 4 are formulated in 50% DMSO. The results are compared to 29 historical controls that were injected with 1 ml/kg saline or 50% DMSO. Rat activity is then determined 30 minutes after injection of the drug solution. Rats are placed in a dark covered chamber and a digicom analyzer (Omnitech Electronic) quantitates their exploratory behavior for a five-minute period. The machine records each time the rat interrupts an array of 32 photoelectric beams in the X and Y orientation.

[4] = test system: rats with ligated L5 and L6 spinal nerves; assay: rat spinal nerve ligation allodynia model (chronic pain); assay type: in vivo; conditions: i.p., doses up to 3 mg/kg, 30 minutes after drug
Procedure: as §3
A model for chronic pain (in particular peripheral neuropathy such as causalgia) involves the surgical ligation of the L5 (and optionally the L6) spinal nerves on one side in experimental animals. Rats recovering from the surgery gain weight and display a level of general activity similar to that of normal rats. However, these rats develop abnormalities of the foot, wherein the hindpaw is moderately everted and the toes are held together. More importantly, the hindpaw on the side affected by the surgery appears to become sensitive to pain from low-threshold mechanical stimuli, such as that producing a faint sensation of touch in a human, within about 1 week following surgery. This sensitivity to normally non-painful touch is called “tactile allodynia” and lasts for at least two months. The response includes lifting the affected hindpaw to escape from the stimulus, licking the paw and holding it in the air for many seconds. None of these responses is normally seen in the control group.
Rats are anesthetized before surgery. The surgical site is shaved and prepared either with betadine or Novacaine. Incision is made from the thoracic vertebra Xlll down toward the sacrum. Muscle tissue is separated from the spinal vertebra (left side) at the L4-S2 levels. The L6 vertebra is located and the transverse process is carefully removed with a small rongeur to expose the L4-L6 spinal nerves. The L5 and L6 spinal nerves are isolated and tightly ligated with 6-0 silk thread. The same procedure is done on the right side as a control, except no ligation of the spinal nerves is performed.
A complete hemostasis is confirmed, then the wounds are sutured. A small amount of antibiotic ointment is applied to the incised area, and the rat is transferred to the recovery plastic cage under a regulated heat-temperature lamp. On the day of the experiment, at least seven days after the surgery, six rats per test group are administered the test drugs by intraperitoneal (i.p.) injection or oral gavage. For i.p. injection, the compounds are formulated in approximately 50% DMSO and given in a volume of 1 ml/kg body weight. FORMULA 2 was tested at doses ranging between 1 and 300 μg /kg, FORMULA 3 was tested at doses between 0.1 and 3 mg/kg and FORMULA 4 was tested at doses of 0.3 and 3 mg/kg. FORMULA 2 was also administered by oral gavage at doses of 0.1, 0.3 and 1 mg/kg body weight to 24-hour fasted rats. A volume equal to 1 ml/kg body weight of an appropriate concentration (i.e. 1 mg/ml for a 1 mg/kg dose) of FORMULA 2 formulated in approximately 50% DMSO was injected using an 18-gauge, 3-inch gavage needle that is slowly inserted through the esophagus into the stomach.
Tactile allodynia is measured prior to and 30 minutes after drug administration using von Frey hairs that are a series of fine hairs with incremental differences in stiffness. Rats are placed in a plastic cage with a wire mesh bottom and allowed to acclimate for approximately 30 minutes. The von Frey hairs are applied perpendicularly through the mesh to the mid-plantar region of the rats' hindpaw with sufficient force to cause slight buckling and held for 6-8 seconds. The applied force has been calculated to range from 0.41 to 15.1 grams. If the paw is sharply withdrawn, it is considered a positive response. […]

Row | SMILES | EC50 [1] [nM] | EC50 [2] [nM] | efficacy or intrinsic activity (value in parentheses) Alpha 2B [2] | EC50 [3] [nM] | efficacy or intrinsic activity (value in parentheses) Alpha 2C [3] | reduction in the exploratory activity of the rats (sedation) (Sprague-Dawley rats) | analgesic activity (tactile allodynia) [4]
1 | OCCNC(=S)NCc1c(Cl)cccc1Cl | ≥ 210000 | 380 | 0.93 | ≥ 210000 |  |  | 
2 | OCCNC(=S)NCc1cc(Br)cc(Br)c1F | ≥ 210000 | 116 | 1.23 | 1410 | 0.58 |  | 
3 | OCCNC(=S)NCc1cc(Br)c(F)c(F)c1F | ≥ 210000 | 512 | 1.07 | ≥ 210000 |  |  | 
4 | Cc1cc(CNC(=S)NCCO)c(F)c(F)c1F | ≥ 210000 | 120 | 0.92 | ≥ 210000 |  |  | 
5 | OCCNC(=S)NCc1cc(Br)cc(Cl)c1F | ≥ 210000 | 117 | 1.13 | > 2000 |  |  | 
6 | OCCNC(=S)NCc1ccccc1F [FORMULA 4] |  |  |  |  |  | none of the compounds caused a statistically significant reduction | no analgesic activity
7 | OCCNC(=S)NCc1cccc(Cl)c1F [drawing 20] | ≥ 210000 | 16 | 0.82 | 457 | 0.37 |  | 
